Experimental data taken from patent US20120277209A1, “PYRAZINE COMPOUNDS AS PHOSPHODIESTERASE 10 INHIBITORS” (Amgen Inc., priority 2009, published 2012).
pIC50: −log10 of the molar value.

target: PDE10 (UniProt Q9Y233); test: PDE10 enzyme inhibition, IMAP TR-FRET assay (MPDE10A7 Enzyme Activity and Inhibition); type: biochemical; details: IC50 class against PDE10; read-out: IC50
Outline: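 IMAP TR-FRET read-out of PDE10 hydrolysis of fluorescein-cAMP or -cGMP (60 min, room temperature), after a 30 min compound-enzyme preincubation. Enzyme source was PDE10A or tissue homogenate. Averaged IC50s are reported as five range classes.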

pIC50	SMILES
7.00 to 7.60	COc1cnccc1-c1nccnc1Oc1ccc(C(=O)c2nc3ccccc3[nH]2)cc1 [Example 113, (1H-benzo[d]imidazol-2-yl)(4-(3-(3-methoxypyridin-4-yl)pyrazin-2-yloxy)phenyl)methanone]
> 7.60	COC(=O)C1CCN(c2nccnc2Oc2ccc(Nc3nc4ccccc4s3)cc2)C1 (stereo not drawn) [Example 96, methyl 1-(3-(4-(benzo[d]thiazol-2-ylamino)phenoxy)pyrazin-2-yl)pyrrolidine-3-carboxylate]
7.00 to 7.60	c1ccc2sc(Nc3ccc(Oc4nccnc4-c4cnc5[nH]ccc5c4)cc3)nc2c1 [Example 141, N-(4-(3-(1H-pyrrolo[2,3-b]pyridin-5-yl)pyrazin-2-yloxy)phenyl)benzo[d]thiazol-2-amine]
> 7.60	O=C(c1ccc(Oc2nccnc2C2CCNCC2)cc1)c1nc2ccccc2[nH]1 [Example 230, (1H-benzo[d]imidazol-2-yl)(4-(3-(piperidin-4-yl)pyrazin-2-yloxy)phenyl)methanone]
> 7.60	OC[C@@H]1CCCN1c1nccnc1Oc1ccc(Nc2nc3ccccc3s2)cc1 [Example 76, (S)-(1-(3-(4-(benzo[d]thiazol-2-ylamino)phenoxy)pyrazin-2-yl)pyrrolidin-2-yl)methanol]
> 7.60	COCC(=O)N1CCC(c2nccnc2Oc2ccc(Nc3nc4ccccc4s3)cc2)CC1 [Example 233, 1-(4-(3-(4-(benzo[d]thiazol-2-ylamino)phenoxy)pyrazin-2-yl)piperidin-1-yl)-2-methoxyethanone]
7.00 to 7.60	COc1ncccc1-c1nccnc1Oc1ccc(C(=O)c2nc3cc(F)ccc3[nH]2)cc1 [Example 117, (5-fluoro-1H-benzo[d]imidazol-2-yl)(4-(3-(2-methoxypyridin-3-yl)pyrazin-2-yloxy)phenyl)methanone]
> 7.60	CC(=O)N1CCC(c2nccnc2Oc2ccc(C(=O)c3nc4ccccc4[nH]3)cc2)CC1 [Example 224, 1-(4-(3-(4-(1H-BENZO[D]IMIDAZOLE-2-CARBONYL)PHENOXY)PYRAZIN-2-YL)PIPERIDIN-1-YL)ETHANONE]
7.00 to 7.60	CC(C)n1c(C(=O)c2ccc(Oc3nccnc3N3CCOCC3)cc2)nc2ccccc21 [Example 6, (1-ISOPROPYL-1H-BENZO[D]IMIDAZOL-2-YL)(4-(3-MORPHOLINOPYRAZIN-2-YLOXY)PHENYL)METHANONE]
> 7.60	CC(F)C(=O)N1CCC(c2nccnc2Oc2ccc(Nc3nc4ccccc4s3)cc2)CC1 (stereo not drawn) [Example 235, 1-(4-(3-(4-(benzo[d]thiazol-2-ylamino)phenoxy)pyrazin-2-yl)piperidin-1-yl)-2-fluoropropan-1-one]
6.60 to 7.00	O=C(c1ccc(Oc2nccnc2OCCN2CCOCC2)cc1)c1nc2ccccc2[nH]1 [Example 172, (1H-benzo[d]imidazol-2-yl)(4-(3-(2-morpholinoethoxy)pyrazin-2-yloxy)phenyl)methanone]
> 7.60	COc1cnccc1-c1nccnc1Oc1ccc(Nc2nc3ccccc3s2)cc1 [Example 149, N-(4-(3-(3-methoxypyridin-4-yl)pyrazin-2-yloxy)phenyl)benzo[d]thiazol-2-amine]
5.30 to 6.00	Fc1cccc2nc(Nc3ccc(Oc4cnccn4)cc3)sc12 [Example 217, 7-fluoro-N-(4-(pyrazin-2-yloxy)phenyl)benzo[d]thiazol-2-amine]
> 7.60	O=C(c1ccc(Oc2nccnc2-c2cccnc2)cc1)c1nc2ccccc2[nH]1 [Example 123, (1H-benzo[d]imidazol-2-yl)(4-(3-(pyridin-3-yl)pyrazin-2-yloxy)phenyl)methanone]
> 7.60	COc1ncccc1-c1nccnc1Oc1ccc(C(O)c2nc3ccccc3[nH]2)cc1 (stereo not drawn) [Example 229, (1H-BENZO[D]IMIDAZOL-2-YL)(4-(3-(2-METHOXYPYRIDIN-3-YL)PYRAZIN-2-YLOXY)PHENYL)METHANOL]
> 7.60	O=C(c1ccc(Oc2nccnc2C2(O)CCOCC2)cc1)c1nc2ccccc2[nH]1 [Example 213, (1H-benzo[d]imidazol-2-yl)(4-(3-(4-hydroxytetrahydro-2H-pyran-4-yl)pyrazin-2-yloxy)phenyl)methanone]
> 7.60	CC(=O)OCC(=O)N1CCC(c2nccnc2Oc2ccc(C(=O)c3nc4ccccc4[nH]3)cc2)CC1 [Example 244, 2-(4-(3-(4-(1H-benzo[d]imidazole-2-carbonyl)phenoxy)pyrazin-2-yl)piperidin-1-yl)-2-oxoethyl acetate]
> 7.60	O[C@H]1CCC[C@H](c2nccnc2Oc2ccc(Nc3nc4ccccc4s3)cc2)C1 (racemic) [Example 192, (rac)-trans-3-(3-(4-(benzo[d]thiazol-2-ylamino)phenoxy)pyrazin-2-yl)cyclohexanol]
> 7.60	CC(=O)N1CC(c2nccnc2Oc2ccc(C(=O)c3nc4ccccc4[nH]3)cc2)C1 [Example 250, 1-(3-(3-(4-(1H-benzo[d]imidazole-2-carbonyl)phenoxy)pyrazin-2-yl)azetidin-1-yl)ethanone]
> 7.60	O=C(c1ccc(Oc2nccnc2C2CCCOCC2)cc1)c1nc2ccccc2[nH]1 (stereo not drawn) [Example 198, (1H-benzo[d]imidazol-2-yl)(4-(3-(oxepan-4-yl)pyrazin-2-yloxy)phenyl)methanone]

same assay, conditions: PDE10 enzyme inhibition; average IC50 data for each compound; read-out: Average IC50

pIC50	SMILES
9.23	COc1ncccc1-c1nccnc1Oc1ccc(C(=O)c2nc3ccccc3n2C)cc1 [drawing 896]
8.09	CC1(O)CCN(c2nccnc2Oc2ccc(Nc3nc4ccccc4s3)cc2)CC1 [drawing 742]
9.74	CC(=O)N1CCC(c2nccnc2Oc2ccc(C(=O)c3nc4ccccc4[nH]3)cc2)CC1 [drawing 889]
6.73	Cn1c(C(=O)c2ccc(Oc3nccnc3Cl)cc2)nc2ccccc21
7.76	N#Cc1ccc(-c2nccnc2Oc2ccc(C(=O)c3nc4ccccc4[nH]3)cc2)cc1 [drawing 734]
7.57	O=C(c1ccc(Oc2nccnc2N2CCC(N3CCOCC3)CC2)cc1)c1nc2ccccc2[nH]1
8.44	O=C(c1ccc(Oc2nccnc2-c2ccnc3ccccc23)cc1)c1nc2ccccc2[nH]1 [drawing 799]
7.05	O=C(c1ccc(Oc2nccnc2OCCN2CCOCC2)cc1)c1nc2ccccc2[nH]1 [drawing 855]
6.61	COC(=O)C1(c2nccnc2Oc2ccc(Nc3nc4ccccc4s3)cc2)CCN(C(=O)OC(C)(C)C)CC1 [drawing 869]
7.96	COc1ccc(COc2ncccc2-c2nccnc2Oc2ccc(C(=O)c3nc4ccccc4[nH]3)cc2)cc1
8.30	c1ccc2sc(Nc3ccc(Oc4nccnc4C4CCCC4)cc3)nc2c1 [drawing 948]
8.95	O=C(c1ccc(Oc2nccnc2[C@H]2CCC[C@H](O)C2)cc1)c1nc2ccccc2[nH]1 [drawing 915]
8.63	O[C@@H]1CCC[C@H](c2nccnc2Oc2ccc(Nc3nc4ccccc4s3)cc2)C1 (stereo in doubt)
9.23	CC(=O)N1CCC(c2nccnc2Oc2ccc(Nc3nc4ccccc4s3)nc2)CC1 [drawing 992]
8.12	O=C(c1ccc(Oc2nccnc2-c2ccncc2)cc1)c1nc2ccccc2[nH]1 [drawing 755]
8.60	O=C(c1ccc(Oc2nccnc2C2CCN(CCF)CC2)cc1)c1nc2ccccc2[nH]1 [drawing 963]
7.30	COc1ncccc1-c1nccnc1Oc1ccc(Nc2nc3cc(F)ccc3s2)cc1 [drawing 964]
8.91	O=C(c1ccc(Oc2nccnc2[C@@H]2CCCOCC2)cc1)c1nc2ccccc2[nH]1 (stereo in doubt)
7.96	O=C(c1ccc(Oc2nccnc2OCCCc2cccnc2)cc1)c1nc2ccccc2[nH]1 [drawing 861]
7.65	COC[C@@H]1CCN(c2nccnc2Oc2ccc(Nc3nc4ccccc4s3)cc2)C1 (stereo in doubt)
9.13	C[C@@H](O)C1CCN(c2nccnc2Oc2ccc(C(=O)c3nc4ccccc4[nH]3)cc2)CC1 (stereo in doubt)
6.27	Fc1ccc2nc(Nc3ccc(Oc4nccnc4Cl)cc3)sc2c1 [drawing 833]
6.27	O=C(c1ccc(Oc2nccnc2OCCN2CCCC2)cc1)c1nc2ccccc2[nH]1 [drawing 856]
7.90	CC(C)N1CCN(c2nccnc2Oc2ccc(Nc3nc4ccccc4s3)cc2)CC1=O [drawing 766]
7.44	COc1cccc(-c2nccnc2Oc2ccc(C(=O)c3nc4ccccc4[nH]3)cc2)c1 [drawing 759]
9.75	C[C@H](F)C(=O)N1CCC(c2nccnc2Oc2ccc(Nc3nc4ccccc4s3)cc2)CC1 (stereo in doubt)
6.73	O=C(c1ccc(Oc2nccnc2OCC(F)(F)F)cc1)c1nc2ccccc2[nH]1 [drawing 847]
9.27	COc1ccncc1-c1nccnc1Oc1ccc(C(=O)c2nc3ccccc3[nH]2)cc1 [drawing 990]
6.41	OC(c1ccc(Oc2nccnc2C2CCOCC2)cc1)c1nc2ccccc2[nH]1 (stereo not drawn)
8.11	O=C(c1ccc(Oc2nccnc2C2CCNCC2)cc1)c1nc2ccccc2[nH]1 [drawing 999]

same assay, conditions: PDE10 enzyme inhibition; chiral compounds separated from racemic mixtures; read-out: IC50

pIC50	SMILES
> 7.60	C[C@H]1CN(c2nccnc2Oc2ccc(Nc3nc4ccccc4s3)cc2)CC(=O)N1 [Example 268, (S)-4-(3-(4-(benzo[d]thiazol-2-ylamino)phenoxy)pyrazin-2-yl)-6-methylpiperazin-2-one]
> 7.60	C[C@@H]1CN(c2nccnc2Oc2ccc(Nc3nc4ccccc4s3)cc2)CC(=O)N1 [Example 267, (R)-4-(3-(4-(benzo[d]thiazol-2-ylamino)phenoxy)pyrazin-2-yl)-6-methylpiperazin-2-one]
> 7.60	C[C@H](F)C(=O)N1CCC(c2nccnc2Oc2ccc(C(=O)c3nc4ccccc4[nH]3)cc2)CC1 [Example 278, (S)-1-(4-(3-(4-(1H-benzo[d]imidazole-2-carbonyl)phenoxy)pyrazin-2-yl)piperidin-1-yl)-2-fluoropropan-1-one]
> 7.60	O=C(c1ccc(Oc2nccnc2[C@H]2CCC[C@@H](O)C2)cc1)c1nc2ccccc2[nH]1 [Example 270, (1H-benzo[d]imidazol-2-yl)(4-(3-((1S,3R)-3-hydroxycyclohexyl)pyrazin-2-yloxy)phenyl) methanone]
